Assay results as given in the NIST ThermoML archive (doi:10.1016/j.fluid.2011.02.010).

Assay: xn = mol fraction of the nth substance listed
Conditions: 101 kPa, Liquid; for speed of sound: Frequency=2 MHz

CCCCn1cc[n+](C)c1.[Cl-] [1-butyl-3-methylimidazolium chloride] + C[S+](C)[O-]
Conditions	mass density [kg/m3]	speed of sound [m/s]	viscosity [mPa·s]
298.15 K, x1 = 0.0111	1096.4	1514	2.13
298.15 K, x1 = 0.0341	1096.96	1544	2.62
298.15 K, x1 = 0.0713	1097.81	1582	3.43
298.15 K, x1 = 0.1122	1098.51	1618	4.35
298.15 K, x1 = 0.1731	1098.36	1658	5.83
298.15 K, x1 = 0.2433	1097.41	1694	7.62
298.15 K, x1 = 0.3032	1095.8	1718	9.17
298.15 K, x1 = 0.3705	1093.86	1742	10.99
298.15 K, x1 = 0.4746	1090.52	1778	13.86
298.15 K, x1 = 0.5997	1086.4	1810	17.36
298.15 K, x1 = 0.7115	1083.11	1834	20.5
298.15 K, x1 = 0.843	1079.14	1848	24.28
298.15 K, x1 = 0.9445	1076.25	1856	27.39
298.15 K, x1 = 1	1074.43	1868	29.21
303.15 K, x1 = 0.0111	1093.12	1490	1.93
303.15 K, x1 = 0.0341	1094.05	1522	2.35
303.15 K, x1 = 0.0713	1094.88	1562	3.04
303.15 K, x1 = 0.1122	1095.16	1598	3.86
303.15 K, x1 = 0.1731	1095.51	1638	5.12
303.15 K, x1 = 0.2433	1094.39	1672	6.66
303.15 K, x1 = 0.3032	1092.84	1698	8.04
303.15 K, x1 = 0.3705	1090.91	1718	9.63
303.15 K, x1 = 0.4746	1087.56	1752	12.14
303.15 K, x1 = 0.5997	1083.53	1792	15.22
303.15 K, x1 = 0.7115	1080.09	1820	17.99
303.15 K, x1 = 0.843	1076.19	1844	21.34
303.15 K, x1 = 0.9445	1073.27	1852	24.12
303.15 K, x1 = 1	1071.38	1860	25.72
308.15 K, x1 = 0.0111	1087.12	1478	1.77
308.15 K, x1 = 0.0341	1088.6	1510	2.12
308.15 K, x1 = 0.0713	1089.65	1550	2.68
308.15 K, x1 = 0.1122	1090.4	1586	3.31
308.15 K, x1 = 0.1731	1090.8	1630	4.34
308.15 K, x1 = 0.2433	1089.91	1664	5.53
308.15 K, x1 = 0.3032	1088.61	1690	6.63
308.15 K, x1 = 0.3705	1086.93	1712	7.91
308.15 K, x1 = 0.4746	1083.87	1748	9.96
308.15 K, x1 = 0.5997	1080.1	1786	12.5
308.15 K, x1 = 0.7115	1076.93	1812	14.79
308.15 K, x1 = 0.843	1072.98	1832	17.57
308.15 K, x1 = 0.9445	1070.09	1840	19.84
308.15 K, x1 = 1	1068.32	1848	21.21
318.15 K, x1 = 0.0111	1077.1	1450	1.51
318.15 K, x1 = 0.0341	1078.9	1484	1.82
318.15 K, x1 = 0.0713	1080.54	1520	2.3
318.15 K, x1 = 0.1122	1081.62	1550	2.87
318.15 K, x1 = 0.1731	1082.42	1592	3.76
318.15 K, x1 = 0.2433	1081.92	1634	4.81
318.15 K, x1 = 0.3032	1080.89	1662	5.78
318.15 K, x1 = 0.3705	1079.44	1688	6.93
318.15 K, x1 = 0.4746	1076.76	1720	8.79
318.15 K, x1 = 0.5997	1073.27	1758	11.1
318.15 K, x1 = 0.7115	1070.22	1788	13.18
318.15 K, x1 = 0.843	1066.58	1808	15.7
318.15 K, x1 = 0.9445	1063.76	1814	17.76
318.15 K, x1 = 1	1062.14	1820	18.97
328.15 K, x1 = 0.0111	1067.04	1422	1.17
328.15 K, x1 = 0.0341	1069.24	1454	1.44
328.15 K, x1 = 0.0713	1071.41	1490	1.89
328.15 K, x1 = 0.1122	1072.82	1520	2.37
328.15 K, x1 = 0.1731	1074.01	1564	3.14
328.15 K, x1 = 0.2433	1073.91	1604	4.06
328.15 K, x1 = 0.3032	1073.16	1630	4.89
328.15 K, x1 = 0.3705	1071.9	1658	5.92
328.15 K, x1 = 0.4746	1069.49	1694	7.6
328.15 K, x1 = 0.5997	1066.39	1730	9.68
328.15 K, x1 = 0.7115	1063.48	1760	11.56
328.15 K, x1 = 0.843	1060.06	1788	13.82
328.15 K, x1 = 0.9445	1057.44	1796	15.65
328.15 K, x1 = 1	1055.89	1804	16.74

CC[NH2+]CC.O=S(=O)([O-])O [diethylammonium hydrogen sulfate] + C[S+](C)[O-]
Conditions	mass density [kg/m3]	speed of sound [m/s]	viscosity [mPa·s]
298.15 K, x1 = 0.0569	–	1486	2.94
298.15 K, x1 = 0.1196	–	1476	4.13
298.15 K, x1 = 0.189	–	1466	5.55
298.15 K, x1 = 0.2461	–	1460	6.77
298.15 K, x1 = 0.308	–	1450	8.15
298.15 K, x1 = 0.3756	–	1444	9.66
298.15 K, x1 = 0.4494	–	1434	11.38
298.15 K, x1 = 0.5306	–	1428	13.31
298.15 K, x1 = 0.6201	–	1424	15.49
298.15 K, x1 = 0.6852	–	1420	17.12
298.15 K, x1 = 0.7552	–	1420	18.87
298.15 K, x1 = 0.8306	–	1426	20.88
298.15 K, x1 = 0.912	–	1428	23.1
298.15 K, x1 = 1	1028.39	1432	25.8
303.15 K, x1 = 0.0569	–	1462	2.53
303.15 K, x1 = 0.1196	–	1452	3.48
303.15 K, x1 = 0.189	–	1442	4.64
303.15 K, x1 = 0.2461	–	1434	5.62
303.15 K, x1 = 0.308	–	1426	6.74
303.15 K, x1 = 0.3756	–	1418	8.01
303.15 K, x1 = 0.4494	–	1410	9.41
303.15 K, x1 = 0.5306	–	1404	11.02
303.15 K, x1 = 0.6201	–	1400	12.83
303.15 K, x1 = 0.6852	–	1398	14.18
303.15 K, x1 = 0.7552	–	1398	15.65
303.15 K, x1 = 0.8306	–	1400	17.27
303.15 K, x1 = 0.9121	–	1404	19.14
303.15 K, x1 = 1	1023.97	1408	21.3
308.15 K, x1 = 0.0569	–	1446	2.33
308.15 K, x1 = 0.1196	–	1436	3.16
308.15 K, x1 = 0.189	–	1428	4.12
308.15 K, x1 = 0.2461	–	1418	4.94
308.15 K, x1 = 0.308	–	1410	5.85
308.15 K, x1 = 0.3756	–	1402	6.86
308.15 K, x1 = 0.4494	–	1396	8.02
308.15 K, x1 = 0.5306	–	1388	9.35
308.15 K, x1 = 0.6201	–	1384	10.89
308.15 K, x1 = 0.6852	–	1384	12.06
308.15 K, x1 = 0.7552	–	1382	13.39
308.15 K, x1 = 0.8306	–	1384	14.84
308.15 K, x1 = 0.9121	–	1388	16.38
308.15 K, x1 = 1	1020.54	1392	18.1
318.15 K, x1 = 0.0569	–	1414	2
318.15 K, x1 = 0.1196	–	1404	2.63
318.15 K, x1 = 0.189	–	1392	3.33
318.15 K, x1 = 0.2461	–	1386	3.93
318.15 K, x1 = 0.308	–	1378	4.59
318.15 K, x1 = 0.3756	–	1370	5.34
318.15 K, x1 = 0.4494	–	1362	6.22
318.15 K, x1 = 0.5306	–	1356	7.19
318.15 K, x1 = 0.6201	–	1350	8.32
318.15 K, x1 = 0.6852	–	1348	9.16
318.15 K, x1 = 0.7552	–	1346	10.1
318.15 K, x1 = 0.8306	–	1348	11.1
318.15 K, x1 = 0.9121	–	1352	12.3
318.15 K, x1 = 1	1012.68	1356	13.61
328.15 K, x1 = 0.0569	–	1400	1.6
328.15 K, x1 = 0.1196	–	1406	2.24
328.15 K, x1 = 0.189	–	1392	2.95
328.15 K, x1 = 0.2461	–	1382	3.51
328.15 K, x1 = 0.308	–	1372	4.12
328.15 K, x1 = 0.3756	–	1362	4.77
328.15 K, x1 = 0.4494	–	1352	5.46
328.15 K, x1 = 0.5306	–	1342	6.21
328.15 K, x1 = 0.6201	–	1332	7.02
328.15 K, x1 = 0.6852	–	1326	7.57
328.15 K, x1 = 0.7552	–	1322	8.17
328.15 K, x1 = 0.8306	–	1320	8.8
328.15 K, x1 = 0.9121	–	1322	9.48
328.15 K, x1 = 1	1004.83	1324	10.2
